Data from PMC6651341, “EDB-FN Targeted Peptide–Drug Conjugates for Use against Prostate Cancer” (International Journal of Molecular Sciences, 2019).
“And” between values parts separate entries of the source, which are not always exact repeats. Equal entries are not always repeated. Where a SMILES comes first, the peptide text is derived from it. Bridges are numbered along the chain shown (N, C = ends). [ ]: non-standard residue; d: D form. The star is where a group is joined. X1 = CC(=O)O[C@@]12CO[C@@H]1C[C@H](O)[C@@]1(C)C(=O)[C@H](O)C3=C(C)[C@@H](OC(=O)[C@H](OC(=O)CCNC(=O)C4CCC(CN5C(=O)CC(*)C5=O)CC4)[C@@H](NC(=O)OC(C)(C)C)c4ccccc4)C[C@@](O)([C@@H](OC(=O)c4ccccc4)[C@H]21)C3(C)C; Doxorubicin(Traut) = COc1cccc2c1C(=O)c1c(O)c3c(c(O)c1C2=O)C[C@@](O)(C(=O)CO)C[C@@H]3O[C@H]1C[C@H](NC(=N)CCCS*)[C@H](O)[C@H](C)O1; Ahx = NCCCCCC(=O)O

Experiments:
[1] = system: PC3; assay: MTS cell viability assay, PC3; format: cell-based, human; conditions: PC3, 2 h incubation, 0.01-100 µM in 5% DMSO
Source text: (§1) Human epithelial prostate cell line (RWPE-1, ATCC No. CRL-11610), human prostate cancer cell line (Human prostate carcinoma DU-145, ATCC No. HTB-81), human adenocarcinoma PC3, ATCC No. CRL-1435), androgen-sensitive human prostate adenocarcinoma cells (LNCaP, ATCC No. CRL-1740), and castration-resistant LNCaP-derived C4-2 (ATCC No. CRL-1595) were purchased from American Type Culture Collection (ATCC), Manassas, VA, USA. All the media, serum, and antibiotics were bought from American Type Culture Collection (ATCC) (Manassas, VA, USA) and Sigma life-science (St. Louis, MO, USA). Keratinocytes SFM (1×) with EGF + BPE was bought from Gibco life technologies (Thermo Fisher Scientific), Gaithersburg, MD, USA. CellTiter 96 was bought from Promega, Madison, WI, USA. Dithiothreitol (DTT) was bought from Thermo Fisher scientific, Carlsbad, CA, USA, and TGF-β was bought from Abcam, Boston, MA, USA.
(§2) Cell-proliferation assay using MTS reagent was conducted against five cell lines (RWPE-1, PC3, DU-145, LNCaP, and, C4-2). Cells were seeded into 96-well plates (5 × 10^3 cells for all the cells) and incubated with 100 µL of complete medium (RPMI-1640 for RWPE-1, DU-145, LNCaP, and C4-2; DMEM for PC3) overnight at 37 °C with 5% CO2. Various concentrations (0, 0.06, 0.6, 6, 60, 600 μM) of the peptide solution (20 μL) were added to cells to yield the final concentrations of peptide (0, 0.01, 0.1, 1, 10, 100 μM). The cells were kept in an incubator (37 °C, 5% CO2) for 24, 48, or 72 h accordingly for different treatment time responses. […] The absorbance was obtained at 490 nm using SpectraMax M2 microplate reader to detect the formazan product. […] The percentage of cell viability was calculated by [(OD value of cells treated with the test mixture of compounds) − (OD value of culture medium)] / [(OD value of control cells) − (OD value of culture medium)] × 100%. […] Cell viability was determined by measuring the absorbance at 490 nm using SpectraMax M2 microplate spectrophotometer, as mentioned above.

[2] = system: RWPE-1, PC3, LNCap, Du-145 cell lines; assay: MTS cell viability, range over four cell lines; format: cell-based, human; conditions: 5 µM, 72 h incubation
Source text: as §1, §2

[3] = system: C4-2 cells with TGF-β treatment (EDB-FN overexpression); assay: MTS cell viability of C4-2 cells treated with TGF-β to overexpress EDB-FN; format: cell-based, human; conditions: C4-2, TGF-β 10 ng/mL for 3 days; for decrease in cell viability in TGF-β treated cells as compared to untreated cells: after 72 h
Protocol: Cell-proliferation assay using MTS reagent was conducted against five cell lines (RWPE-1, PC3, DU-145, LNCaP, and, C4-2). Cells were seeded into 96-well plates (5 × 10^3 cells for all the cells) and incubated with 100 µL of complete medium (RPMI-1640 for RWPE-1, DU-145, LNCaP, and C4-2; DMEM for PC3) overnight at 37 °C with 5% CO2. Various concentrations (0, 0.06, 0.6, 6, 60, 600 μM) of the peptide solution (20 μL) were added to cells to yield the final concentrations of peptide (0, 0.01, 0.1, 1, 10, 100 μM). The cells were kept in an incubator (37 °C, 5% CO2) for 24, 48, or 72 h accordingly for different treatment time responses. Then, a CellTiter 96 aqueous solution (20 μL) was added to each well and incubated for 4 h under the same condition. The absorbance was obtained at 490 nm using SpectraMax M2 microplate reader to detect the formazan product. Wells containing cells in the absence of any peptide were used as a control. The percentage of cell viability was calculated by [(OD value of cells treated with the test mixture of compounds) − (OD value of culture medium)] / [(OD value of control cells) − (OD value of culture medium)] × 100%. […] Cell viability was determined by measuring the absorbance at 490 nm using SpectraMax M2 microplate spectrophotometer, as mentioned above.
To compare the cytotoxicity of compounds using treatment of TGF-β, the cells were culture, and 8000 cells (RPWE-1, PC3, DU-145, LNCap, and C4-2) were added in 120 μL per well with TGF-β treatment. Cells were exposed to TGF-β at 10 ng/mL for 3 days. Then cells were seeded in the corresponding medium (DMEM containing 10% FBS and 1% penicillin–streptomycin for DU-145, LNCaP, and PC3; keratinocyte containing 0.1% FBS without antibiotics for RWPE-1), 24 h prior to the experiment. Then, MTS assay was followed up, as mentioned in 3.5.1.

[4] = system: C4-2; assay: MTS cell viability assay, C4-2 without TGF-β; format: cell-based, human; conditions: C4-2 without TGF-β, 24–72 h
Source text: as §1, §2

[5] = Stability under redox conditions with dithiothreitol (DTT); format: physicochemical; conditions: PBS pH 7.4, 12 equiv DTT (0.12 mM DTT, 0.010 mM peptide), analytical HPLC 214 nm, % remaining from AUC
Protocol: (§3) The stability of peptide–drug conjugate 13 was evaluated in the phosphate buffered saline (PBS). The pH of PBS was adjusted to 6.8, 7.0, 7.4 using HCl and NaOH as needed. In brief, 250 µL of 1 × PBS was mixed with 45 µL of 0.25 mM Dox-peptide conjugate 13. The mixture was incubated at 37 °C in a water bath covered with aluminum foil. An aliquot (40 µL) was removed at different time intervals, such as 4, 24, and 84 h and analyzed using analytical RP-HPLC at 490 nm. The percentage of the remained peptide was calculated using the area under the curve (AUC) by integrating the chromatogram in analytical HPLC. For evaluation of stability in DTT, a solution of DTT (0.120 mM) was prepared using PBS (pH 7.4). A solution of compounds (1, 8, and 13 at 1 mM) was prepared in PBS (pH = 7.4). A volume of 45 µL of the peptide was added to 2.250 mL of PBS in a UV-blocking glass vial. The glass vials were put under nitrogen and stirred using a small magnetic bead. A volume of DTT ([…], 12 equiv) was added to the solution, which was incubated with each peptide sample to obtain a working concentration of 0.12 mM DTT and 0.010 mM peptide. Aliquots of 200 µL were collected at different time intervals and analyzed using analytical HPLC vials (0 min was used as controls without DTT) after quenching the DTT with 10 µL of H2O (pH = 2). The aliquots were run on analytical HPLC with detection at 214 nm.

[6] = Stability in PBS at different pH; format: physicochemical; conditions: pH values ranging from 6.5 to 7.4 (method: 6.8, 7.0, 7.4), 37 °C, aliquots at 4, 24, 84 h, analytical RP-HPLC 490 nm, % remaining from AUC
Protocol: as §3

[7] = Stability in 25% human serum; format: in vitro ADME; conditions: 25% human serum in RPMI-1640, 37 °C, conjugate 125 µM, aliquots 2-120 min, methanol precipitation, analytical HPLC, trendline R^2 0.978, each point average of three readings
Protocol: The stability was performed using 25% human serum. 325 µL of RPMI-1640 media was incubated with 125 µL of human serum at 37 °C in a water bath. Then 50 µL of 125 µM of conjugate 13 was added to the RPMI and serum. The control experiment was performed without conjugate using an aqueous 5% DMSO. Several aliquots (55 µL) were removed at 2, 5, 10, 15, 30, 60, 90, and 120 min. The aliquots were added to 120 µL of cold methanol to precipitate the serum proteins with vigorous mixing using vortex and kept at ice for 10 min. Then, the samples were centrifuged at 17× g (13,300 rpm) for 10 min to get a pellet of the insoluble peptide. The supernatant was collected and analyzed on analytical HPLC, as mentioned before.

[8] = target: T1, Human cathepsin B (Homo sapiens, UniProt P07858); assay: Hydrolysis with cathepsin B enzyme; format: in vitro ADME; conditions: activated human cathepsin B, 50 mM acetate buffer pH 5.0 with 1 mM EDTA, 8 µL of 1 mM conjugate per 200 µL, HPLC 214/490 nm and MALDI-TOF
T1 construct: purchased Athens Research Lot # CB2016-02 (a lot number; no catalogue number given)
Protocol: Human cathepsin B (CTSB, Lot # CB2016-02 from Athens Research, Athens, GA, USA) was used to hydrolyze the cathepsin linker GFLG in conjugated peptide 13. A stock solution of cathepsin B enzyme (0.434 µg/µL) was prepared using 50 mM acetate (pH 5.0) buffer with 1 mM EDTA. The activation buffer was separately prepared using 30 mM DTT and 15 mM EDTA in H2O. An aliquot of 2.25 µL of cathepsin B stock was activated with 5 µL of activation buffer for 15 min at room temperature then diluted with 1.185 mL of acetate buffer and aliquoted into different tubes with 200 µL each. Further 8 µL of 1 mM of conjugated peptide 13 was added to aliquots and incubated for various time intervals. Then, the reaction was quenched by boiling to denature cathepsin B for 10 min. A 400 µL of cold methanol was added to precipitate the proteins followed by centrifugation of sample 17× g (13,300 rpm) for 10 min. A supernatant (500 µL) was collected, evaporated, and reconstituted with 300 µL of HPLC solvent A (H2O with 0.1% TFA). The eluent fraction from HPLC was further collected and analyzed using MALDI-TOF mass spectrometry to confirm the hydrolysis of the conjugate.

Compound | toxicity at or below 10 µM [1] | cell proliferation (cell viability), range over all four cell lines [2] | cytotoxicity compared to drug alone [4] | decrease in cell viability in TGF-β treated cells as compared to untreated cells [3] | further results
COc1cccc2c1C(=O)c1c(O)c3c(c(O)c1C2=O)C[C@@](O)(C(=O)CO)C[C@@H]3O[C@H]1C[C@H](N)[C@H](O)[C@H](C)O1 [Dox, doxorubicin, reference compound] | no significant toxicity | 20–34% |  |  | effect of TGF-β treatment on cytotoxicity compared to TGF-β untreated cells [3]: no observed effect
CC(=O)O[C@@]12CO[C@@H]1C[C@H](O)[C@@]1(C)C(=O)[C@H](O)C3=C(C)[C@@H](OC(=O)[C@H](OC(=O)CCNC(=O)C4CCC(CN5C(=O)CC(SC[C@H](N)C(=O)NCC(=O)N[C@@H](Cc6ccccc6)C(=O)N[C@@H](CC(C)C)C(=O)NCC(=O)NCCCCCC(=O)N[C@H]6CCCCNC(=O)CC[C@@H](C(N)=O)NC(=O)[C@H](CC(=O)O)NC(=O)[C@H](C)NC(=O)[C@H](CO)NC(=O)[C@H]([C@@H](C)O)NC(=O)[C@H](CCCNC(=N)N)NC(=O)[C@H](C(C)C)NC(=O)[C@H]([C@@H](C)O)NC6=O)C5=O)CC4)[C@@H](NC(=O)OC(C)(C)C)c4ccccc4)C[C@@](O)([C@@H](OC(=O)c4ccccc4)[C@H]21)C3(C)C (stereo partly drawn) [compound 14] (H-C(X1)GFLG[Ahx]KTVRTSADE-NH2; lactam 7-15) |  |  | less cytotoxic as compared to drug alone | 10% | 
CC(C)[C@@H]1NC(=O)[C@H]([C@@H](C)O)NC(=O)[C@@H](N)CCCCNC(=O)CC[C@@H](C(N)=O)NC(=O)[C@H](CC(=O)O)NC(=O)[C@H](C)NC(=O)[C@H](CO)NC(=O)[C@H]([C@@H](C)O)NC(=O)[C@H](CCCNC(=N)N)NC1=O [compound 8] (H-KTVRTSADE-NH2; lactam 1-9) |  |  |  |  | half-life / stability under redox conditions (DTT) [5]: > 8 h and 8 h
COc1cccc2c1C(=O)c1c(O)c3c(c(O)c1C2=O)C[C@@](O)(C(=O)CO)C[C@@H]3O[C@H]1C[C@H](NC(=N)CCCSSC[C@H](N)C(=O)NCC(=O)N[C@@H](Cc2ccccc2)C(=O)N[C@@H](CC(C)C)C(=O)NCC(=O)NCCCCCC(=O)N[C@H]2CCCCNC(=O)CC[C@@H](C(N)=O)NC(=O)[C@H](CC(=O)O)NC(=O)[C@H](C)NC(=O)[C@H](CO)NC(=O)[C@H]([C@@H](C)O)NC(=O)[C@H](CCCNC(=N)N)NC(=O)[C@H](C(C)C)NC(=O)[C@H]([C@@H](C)O)NC2=O)[C@H](O)[C@H](C)O1 [compound 13] (H-C(Doxorubicin(Traut))GFLG[Ahx]KTVRTSADE-NH2; lactam 7-15) | no significant toxicity | 25–35% | less cytotoxic as compared to drug alone | 17% | half-life in PBS [6]: ~ 10 h; half-life at 12.5 µM [7]: ~0.197 h; time within which cathepsin B cleaves the GFLG linker / releases drug [8]: ≤ 5 min
CC(=O)O[C@@]12CO[C@@H]1C[C@H](O)[C@@]1(C)C(=O)[C@H](O)C3=C(C)[C@@H](OC(=O)[C@H](O)[C@@H](NC(=O)OC(C)(C)C)c4ccccc4)C[C@@](O)([C@@H](OC(=O)c4ccccc4)[C@H]21)C3(C)C [Doce, docetaxel, reference compound] |  | 54–61% |  | 16% | 
